Assay results published in US11382918B2, “Methods for treating Huntington's Disease” (PTC Therapeutics, Inc., priority 2017, dated 2022).

test system: Endogenous Huntingtin Protein (HTT); assay: Endogenous Huntingtin Protein Assay (ELISA-based MSD electrochemiluminescence); assay type: cell-based; details: Table 1
Method in brief: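 HTT protein in lysates was measured by electrochemiluminescence on the MSD platform. Rabbit monoclonal 5656S followed by SULFO-TAG anti-rabbit antibody served for detection after overnight 4 °C capture with MAB2166 or the polyglutamine-directed MW1 antibody.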

| Compound | IC50 |
| --- | --- |
| CCc1cc(-c2cc(=O)n3cc(N4CCN[C@@H](C)C4)ccc3n2)cn2cc(C)nc12 [compound 639, 2-(8-ethyl-2-methylimidazo[1,2-a]pyridin-6-yl)-7-[(3S)-3-methylpiperazin-1-yl]-4H-pyrido[1,2-a]pyrimidin-4-one] | 3000 to 33000 nM |
| CCc1cc(-c2cc(=O)n3cc(N4CCN(CCO)[C@H](C)C4)ccc3n2)cn2cc(C)nc12 [compound 649, 2-(8-ethyl-2-methylimidazo[1,2-a]pyridin-6-yl)-7-[(3R)-4-(2-hydroxyethyl)-3-methylpiperazin-1-yl]-4H-pyrido[1,2-a]pyrimidin-4-one] | 500 to 1000 nM |
| CCc1nc(C)cn2nc(-c3cc(=O)n4cc(C5CCN(C)CC5)ncc4n3)cc12 [compound 654, 2-(4-ethyl-6-methylpyrazolo[1,5-a]pyrazin-2-yl)-7-(1-methylpiperidin-4-yl)-4H-pyrazino[1,2-a]pyrimidin-4-one] | < 100 nM |
| CCc1nc(C)cn2nc(-c3cc(=O)n4cc(C5CCN(CC)CC5)ncc4n3)cc12 [compound 655, 2-(4-ethyl-6-methylpyrazolo[1,5-a]pyrazin-2-yl)-7-(1-ethylpiperidin-4-yl)-4H-pyrazino[1,2-a]pyrimidin-4-one] | 100 to 500 nM |
| CCc1nc(C)cn2nc(-c3cc(=O)n4cc(N5CCN(CCCF)CC5)ccc4n3)cc12 [compound 665, 2-(4-ethyl-6-methylpyrazolo[1,5-a]pyrazin-2-yl)-7-[4-(3-fluoropropyl)piperazin-1-yl]-4H-pyrido[1,2-a]pyrimidin-4-one] | 3000 to 33000 nM |
| CCc1nc(C)cn2nc(-c3cc(=O)n4cc(N5CCN(CCCF)[C@H](C)C5)ccc4n3)cc12 [compound 667, 2-(4-ethyl-6-methylpyrazolo[1,5-a]pyrazin-2-yl)-7-[(3R)-4-(3-fluoropropyl)-3-methylpiperazin-1-yl]-4H-pyrido[1,2-a]pyrimidin-4-one] | 1000 to 3000 nM |
| CCc1nc(C)cn2nc(-c3cc(=O)n4cc(C5CCN(CCF)CC5)ccc4n3)cc12 [compound 668, 2-(4-ethyl-6-methylpyrazolo[1,5-a]pyrazin-2-yl)-7-[1-(2-fluoroethyl)piperidin-4-yl]-4H-pyrido[1,2-a]pyrimidin-4-one] | 500 to 1000 nM |

The remaining lines, values ahead:

| IC50 | Compound |
| --- | --- |
| 3000 to 33000 nM | Cc1cn2nc(-c3cc(=O)n4cc(C5CCN(C6CC6)CC5)ccc4n3)cc2c(C)n1 [compound 641, 7-(1-cyclopropylpiperidin-4-yl)-2-(4,6-dimethylpyrazolo[1,5-a]pyrazin-2-yl)-4H-pyrido[1,2-a]pyrimidin-4-one] |
| < 100 nM | CCc1nc(C)cn2nc(-c3cc(=O)n4cc(C5CCNCC5)ncc4n3)cc12 [compound 653, 2-(4-ethyl-6-methylpyrazolo[1,5-a]pyrazin-2-yl)-7-(piperidin-4-yl)-4H-pyrazino[1,2-a]pyrimidin-4-one] |
| 100 to 500 nM | CCc1nc(C)cn2nc(-c3cc(=O)n4cc(C5CCNCC5)ccc4n3)cc12 [compound 656, 2-(4-ethyl-6-methylpyrazolo[1,5-a]pyrazin-2-yl)-7-(piperidin-4-yl)-4H-pyrido[1,2-a]pyrimidin-4-one] |
| 500 to 1000 nM | Cc1cn2nc(-c3cc(=O)n4cc(C5CCN(CCF)CC5)ccc4n3)cc2c(C)n1 [compound 662, 2-(4,6-dimethylpyrazolo[1,5-a]pyrazin-2-yl)-7-[1-(2-fluoroethyl)piperidin-4-yl]-4H-pyrido[1,2-a]pyrimidin-4-one] |
| 1000 to 3000 nM | Cc1cn2nc(-c3cc(=O)n4cc(C5CCNCC5)cc(C)c4n3)cc2c(C)n1 [compound 671, 2-(4,6-dimethylpyrazolo[1,5-a]pyrazin-2-yl)-9-methyl-7-(piperidin-4-yl)-4H-pyrido[1,2-a]pyrimidin-4-one] |
| 3000 to 33000 nM | Cc1cn2nc(-c3cc(=O)n4cc(N5CCN(CCO)[C@H](C)C5)cc(C)c4n3)cc2c(C)n1 [compound 673, 2-(4,6-dimethylpyrazolo[1,5-a]pyrazin-2-yl)-7-[(3R)-4-(2-hydroxyethyl)-3-methylpiperazin-1-yl]-9-methyl-4H-pyrido[1,2-a]pyrimidin-4-one] |
